The structures appear in SMILES notation.

One data set in a line: Solubility in PBS. To be noted: Yes/NO. It counts as physicochemical.
In data set [1] the test system is CH58TF infected primary CD4+ T-cells. The experiment in a line: Recognition of HIV-1 infected cells by 17b (flow cytometry cell-surface staining). Format: cell-based. To be noted: Human immunodeficiency virus 1, T-cell, read-out: Fold Over DMSO (17b, n = 1). The essentials: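 Primary CD4+ T cells infected 48 h with HIV-1 CH58TF, stained with 5 μg/ml 17b plus MCG analogs (50 μM), (+)-BNM-III-170 or DMSO vehicle. Detection by Alexa Fluor 647 anti-human IgG secondary and flow cytometry. Infected cells gated as p24+ living cells.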
(A flow cytometer gives signals particle by particle.)

The test system is the same in data set [2]. The experiment in a line: HIV+ patient sera/plasma recognition of CH58TF infected primary CD4+ T-cells (flow cytometry cell-surface staining). Format: cell-based, HIV-1. To be noted: Human immunodeficiency virus 1, T-cell, read-out: Fold Over DMSO (patient sera, n = 3). The essentials: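 Primary CD4+ T cells from PBMC infected with HIV-1 CH58TF for 48 h, then surface-stained with 1:1000 HIV+ plasma or 5 μg/ml 17b plus 50 μM MCG analogs or DMSO; Alexa Fluor 647 anti-human IgG detection by flow cytometry, infected cells gated p24+. Values are fold change over DMSO.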

Data set [3] relates to primary CD4+ T cells infected with CH58 TF. The experiment in a line: FACS-based ADCC assay with patient sera/plasma. It counts as cell-based, HIV-1. To be noted: Human immunodeficiency virus 1, CD4+ T, read-out: Fold over DMSO (% ADCC with ps, n = 3). The method, then:
Measurement of antibody or serum-mediated ADCC is performed with a FACS-based assay as described in Prevost, “Influence of the Envelope gp120 Phe 43 Cavity on HIV-1 Sensitivity to Antibody-Dependent Cell-Mediated Cytotoxicity Responses,” 2017, J. Virol 91; Richard, “CD4 mimetics sensitize HIV-1-infected cells to ADCC,” 2015, Proc. Natl. Acad. Sci. USA, 112:E2687-2694; Richard, “Small CD4 Mimetics Prevent HIV-1 Uninfected Bystander CD4+ T Cell Killing Mediated by Antibody-dependent Cell-mediated Cytotoxicity,” 2016, EBioMedicine 3:122-134; Veillette, “The HIV-1 gp120 CD4-Bound Conformation Is Preferentially Targeted by Antibody-Dependent Cellular Cytotoxicity-Mediating Antibodies in Sera from HIV-1-Infected Individuals,” 2015, J. Virol., 89:545-551; Veillette, “Interaction with cellular CD4 exposes HIV-1 envelope epitopes targeted by antibody-dependent cell-mediated cytotoxicity,” 2014, J. Virol., 88:2633-2644; Richard, “Uninfected Bystander Cells Impact the Measurement of HIV-Specific Antibody-Dependent Cellular Cytotoxicity Responses,” 2018, MBio. 9(2): e00358-18; Richard, “BST-2 Expression Modulates Small CD4-Mimetic Sensitization of HIV-1-Infected Cells to Antibody-Dependent Cellular Cytotoxicity,” 2017, J. Virol. 91(11):e00219-17. This assay specifically measures ADCC activity against productively infected cells and is not affected by the confounding effect of uninfected bystander cells. See, Richard, “Uninfected Bystander Cells Impact the Measurement of HIV-Specific Antibody-Dependent Cellular Cytotoxicity Responses,” 2018, MBio., 9(2): e00358-18.
Briefly, primary CD4+ T cells isolated from healthy HIV-1-negative individuals or CEM-NKr cells are infected with HIV viruses. Forty-eight hours post-infection, cells are incubated with autologous PBMC (effector:target cell ratio of 10:1) in the presence of 1:1000 HIV+ sera dilution or anti-Env Abs (5 μg/mL) alone or in combination with increasing concentration of MCG analogs. Infected cells are identified by intracellular staining for HIV-1 p24 or GFP expression (for GFP expressing infectious molecular clones) and the percentage of cytotoxicity is calculated the following formula as described.
For cells infected with HIV-1 primary isolates, infected cells are identified by intracellular staining for HIV-1 p24. In that context, the percentage of cytotoxicity is calculated with the following formula by gating infected lived target cells: […]
The ADCC susceptibility of primary CD4+ T cells infected with CH58 TF mediated by HIV+ plasma+/−MCG analogs also was evaluated using a FACS-based assay as previously reported. See, Ding, 2016, J Virol., 90:2127-2134; and Richard, 2018, MBio 9.
Briefly, Primary CD4 T cells isolated from PBMC were infected with HIV-1CH58TF for 48 hours. For cell surface staining, 5 μg/ml 17b (FIG. 15A) or 1:1000 diluted HIV+ plasma (n=15) (FIG. 15B) were used in the presence of the different MCG analogs (50 μM), (+)-BNM-III-170 or with an equivalent volume of vehicle (DMSO). An Alexa Fluor 647-conjugated anti-human IgG secondary Ab was then used for fluorescent labeling. For ADCC (FIG. 15C), infected cells were used as target cells in a FACS-based ADCC assay that measures the killing of infected (p24+ cells). See, Madani, 2016, J. Virol., 90:5031-5046. The assay determines susceptibility to ADCC mediated by a 1/1,000 dilution of plasma from 15 HIV-1-infected individuals in the presence of the different MCG analogs (50 μM), (+)-BNM-III-170 (50 μM) or with an equivalent volume of vehicle (DMSO). Correlation between cell-surface staining with HIV+ plasma and ADCC was calculated using the Spearman rank correlation (FIG. 15D).

Data set [4] deals with HIV-1JR-FL EnvΔCT expressed at the surface of HOS cells. The experiment in a line: Cell-based ELISA (CBE), 17b readout. To be noted: MCG analogs 50 μM; BNM-III-170 5 μM; 2G12 and DMSO normalized. The essentials:
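HOS cells transiently expressing cytoplasmic-tail-truncated HIV-1JR-FL Env were treated 30 min at room temperature with compounds (50 μM), sCD4 ([…]) or DMSO, then 1 h with 17b antibody. Bound 17b was detected by HRP-conjugated anti-Fc chemiluminescence; values are fold over BNM-III-170 (5 μM), normalized to 2G12 and DMSO.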

Turning to `COc1ccccc1NC(=O)[C@H]1CCCN(S(C)(=O)=O)C1` [(S)-MCG-III-027-C05], in “Solubility in PBS”, the “Solubility (in PBS)” value was “Yes”. For the same molecule, the fold induction at 50 µM in data set [1] came out at 1.5; in data set [2] it was 1.76; in data set [3], 0.46.

For `CS(=O)(=O)N1CCNC(C(=O)Nc2ccc(Cl)c(F)c2)C1` (stereo not shown) [MCG-III-216-A02], in data set [4], the “Fold over BNM-III-170 - 17b binding (±0.05)” value (shortened to “Fold … (±0.05)”) was found to be 0.10 fold. Besides, in the data set “Solubility in PBS”, the “Solubility (in PBS)” value is “Yes”. Also, the fold induction at 50 µM in data set [1] turned out to be 1.3; in data set [2], 1.03.

Take `O=C(Nc1ccc(Cl)c(F)c1)C1CN(S(=O)(=O)c2ccccc2)CCN1` (stereo not shown) [MCG-III-216-A03]: the “Fold … (±0.05)” value in data set [4] is listed as 0.11 fold. Moreover, in the data set “Solubility in PBS”, the “Solubility (in PBS)” value was “Yes”. In addition, the fold induction at 50 µM in data set [1] worked out at 1.47; in data set [2] it was 1.05.

Take `Cn1cnc(S(=O)(=O)N2CCNC(C(=O)Nc3ccc(Cl)c(F)c3)C2)c1` (stereo not shown) [MCG-III-216-A04]: the “Fold … (±0.05)” value in data set [4] was 0.10 fold. Also, the “Solubility (in PBS)” value in the data set “Solubility in PBS” is listed as “Yes”. Further, the fold induction at 50 µM worked out at 1.24 in data set [1] and 0.845 in data set [2].

Source of the values: patent US12286401B2, “Small molecules that sensitize HIV-1 infected cells to antibody dependent cellular cytotoxicity” (THE TRUSTEES OF THE UNIVERSITY OF PENNSYLVANIA, priority 2018, dated 2025).
